These compounds were tested against KAT2A (Homo sapiens, UniProt Q92830) (assay: KAT2A degradation, Western Blot (Jess), MOLM-13 cells). Settings: MOLM-13 cells, KAT2A, 24 h, Western Blot, vs DMSO; read-out: KAT2A MOLM-13 DC50.
Sequence of KAT2A (Q92830 whole entry): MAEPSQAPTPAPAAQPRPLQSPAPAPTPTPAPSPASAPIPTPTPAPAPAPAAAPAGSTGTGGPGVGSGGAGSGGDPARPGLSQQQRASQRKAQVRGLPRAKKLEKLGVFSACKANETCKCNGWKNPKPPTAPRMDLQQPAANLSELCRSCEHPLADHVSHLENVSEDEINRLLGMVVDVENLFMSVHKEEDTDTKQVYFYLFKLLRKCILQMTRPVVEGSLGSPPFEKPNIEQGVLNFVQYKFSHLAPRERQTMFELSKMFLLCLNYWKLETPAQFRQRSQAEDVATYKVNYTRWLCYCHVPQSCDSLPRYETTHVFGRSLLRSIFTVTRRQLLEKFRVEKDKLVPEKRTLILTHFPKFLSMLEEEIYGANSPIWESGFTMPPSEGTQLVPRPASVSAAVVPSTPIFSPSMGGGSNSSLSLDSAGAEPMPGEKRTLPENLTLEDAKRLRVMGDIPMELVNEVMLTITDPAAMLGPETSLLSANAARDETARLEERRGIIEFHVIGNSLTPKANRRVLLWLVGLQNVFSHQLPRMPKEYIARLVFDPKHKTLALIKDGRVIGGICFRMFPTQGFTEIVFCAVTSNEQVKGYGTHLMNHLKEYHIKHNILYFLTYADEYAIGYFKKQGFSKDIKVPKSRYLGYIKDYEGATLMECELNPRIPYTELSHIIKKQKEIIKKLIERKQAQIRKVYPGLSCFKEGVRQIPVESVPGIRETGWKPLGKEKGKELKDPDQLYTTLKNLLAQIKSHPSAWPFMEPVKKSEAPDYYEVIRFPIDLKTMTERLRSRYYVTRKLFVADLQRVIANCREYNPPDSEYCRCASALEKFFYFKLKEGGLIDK
Format: cell-based
Parameters: degrader, Western blot
Description: MOLM-13 cells or NCI-H1048 cells were used for Western Blot analysis of KAT2A degradation. KAT2B degradation can be measured in a similar manner with NCI-H1048 cells.
MOLM-13 cells were maintained at 37° C. in 5% CO2 and 90% humidity in RPMI 1640 supplemented with 20% fetal bovine serum (FBS) and 1× penicillin/streptomycin. Cells were plated in full media at 1-2 million cells/2 mL in a 6-well tissue culture treated plate with or without compounds for 24 h at 37° C. in 5% CO2.
MOLM-13 cells or NCI-H1048 cells were washed with PBS, then lysed with RIPA buffer containing 1×protease and phosphatase inhibitors (SantaCruz Biotechnologies Cat #sc-24948A). Protein was isolated by centrifugation at 12,000×g for 10 minutes at 4° C. and supernatant was collected. Protein was quantified via Bradford assay. Samples were diluted to 4 μg lysate in 16 μL RIPA buffer and then 4 μL of Jess Sample Buffer. Samples were heated at 95° C. for 5 minutes. Samples were loaded onto 12-230 kDa Jess™ Separation Module, 8×25 capillary cartridges (SM-W004, Biotechne). Antibodies loaded were: Primary antibody for KAT2A (GCN5L2 (C26A10) Rabbit mAb (3305, CST)) and for KAT2B (PCAF (C14G9)) Rabbit mAb (3378, CST) at 1:1000 and Anti-Rabbit Detection Module for Jess™ (Cat No #DM-001, Biotechne). Signal was detected by chemiluminescence.
DC50 values were determined from percent reduction of protein as compared to the DMSO control.
With `CN1C[C@H](Nc2cnn(C)c(=O)c2Br)C[C@H](c2ccc(CN3CCC(c4ccc5c(c4)CN(C4CCC(=O)NC4=O)C5=O)C3)cc2)C1` (stereo partly drawn) [Compound 113] the DC50 was less than 1 nM.
`CN1C[C@H](Nc2cnn(C)c(=O)c2Br)C[C@H](c2ccc(C(=O)N3CCC(c4ccc(NC5CCC(=O)NC5=O)cc4)CC3)cc2)C1` (stereo partly drawn) [Compound 115] showed a DC50 of less than 1 nM.
For `CN1C[C@H](Nc2cnn(C)c(=O)c2Br)C[C@H](c2ccc(CN3CCN(c4cccc5c4CN(C4CCC(=O)NC4=O)C5=O)CC3)cc2)C1` (stereo partly drawn) [Compound 116], the DC50 was less than 1 nM.
In the case of `CN1C[C@H](Nc2cnn(C)c(=O)c2Br)C[C@H](c2ccc(COC3CN(c4ccc5c(c4)C(=O)N(C4CCC(=O)NC4=O)C5=O)C3)cc2)C1` (stereo partly drawn) [Compound 117], the DC50 is reported as less than 1 nM.
`CN1C[C@H](Nc2cnn(C)c(=O)c2Br)C[C@H](c2ccc(C(=O)N3CCC4(CCN(CC5CCN(c6ccc7c(c6)C(=O)N(C6CCC(=O)NC6=O)C7=O)CC5)C4)C3)cc2)C1` (stereo partly drawn) [Compound 118] was tested, and the DC50 was less than 1 nM.
`CN1C[C@H](Nc2cnn(C)c(=O)c2Br)C[C@H](c2ccc(C(=O)N3CCC(Oc4cccc(C5CCC(=O)NC5=O)c4)CC3)cc2)C1` (stereo partly drawn) [Compound 119] was tested, and the DC50 was 1 to 30 nM.
With `Cc1ccc(OC2CCN(C(=O)c3ccc([C@H]4C[C@@H](Nc5cnn(C)c(=O)c5Br)CN(C)C4)cc3)CC2)cc1C1CCC(=O)NC1=O` (stereo partly drawn) [Compound 121] the DC50 was 1 to 30 nM.
With `Cc1ccc(OC2CCN(Cc3ccc([C@H]4C[C@@H](Nc5cnn(C)c(=O)c5Br)CN(C)C4)cc3)CC2)cc1C1CCC(=O)NC1=O` (stereo partly drawn) [Compound 122] the DC50 was 1 to 30 nM.
`CN1C[C@H](Nc2cnn(C)c(=O)c2Br)C[C@H](c2ccc(CN3CCC4(CC3)CN(c3cccc(C5CCC(=O)NC5=O)c3)C4)cc2)C1` (stereo partly drawn) [Compound 127] was tested, and the DC50 was 1 to 30 nM.
For `CN1C[C@H](Nc2cnn(C)c(=O)c2Br)C[C@H](c2ccc(C(=O)N3CCC4(CC3)CN(c3cccc(C5CCC(=O)NC5=O)c3)C4)cc2)C1` (stereo partly drawn) [Compound 128], the DC50 was 1 to 30 nM.
Work on `CN1C[C@H](Nc2cnn(C)c(=O)c2C2CC2)C[C@H](c2ccc(CN3CCC(c4ccc5c(c4)CN(C4CCC(=O)NC4=O)C5=O)CC3)cc2)C1` (stereo partly drawn) [Compound 129] yielded a DC50 of 1 to 30 nM.
`CN1C[C@H](Nc2cnn(C)c(=O)c2Br)C[C@H](c2ccc(CN3CCC(c4ccc5c(c4)C(=O)N(C4CCC(=O)NC4=O)C5=O)C3)cc2)C1` (stereo partly drawn) [Compound 130] was tested, and the DC50 was 1 to 30 nM.
With `CN1C[C@H](Nc2cnn(C)c(=O)c2Br)C[C@H](c2ccc(C(=O)N3CCC(Oc4ccc(F)c(C5CCC(=O)NC5=O)c4)CC3)cc2)C1` (stereo partly drawn) [Compound 131] the DC50 was 1 to 30 nM.
With `CN1C[C@H](Nc2cnn(C)c(=O)c2Br)C[C@H](c2ccc(CN3CCC(Oc4ccc(F)c(C5CCC(=O)NC5=O)c4)CC3)cc2)C1` (stereo partly drawn) [Compound 132] the DC50 was less than 1 nM.
`CN1C[C@H](Nc2cnn(C)c(=O)c2Br)C[C@H](c2ccc(CN3CCC4(CC3)CN(c3ccc(C5CCC(=O)NC5=O)cc3)C4)cc2)C1` (stereo partly drawn) [Compound 133] gave a DC50 of 1 to 30 nM.
In the case of `CN1C[C@H](Nc2cnn(C)c(=O)c2Br)C[C@H](c2ccc(CN3CCC4(CC3)CCN(c3cccc(C5CCC(=O)NC5=O)c3)CC4)cc2)C1` (stereo partly drawn) [Compound 134], the DC50 is reported as less than 1 nM.
With `CN1C[C@H](Nc2cnn(C)c(=O)c2Br)C[C@H](c2ccc(C(=O)N3CCC4(CC3)CCN(c3cccc(C5CCC(=O)NC5=O)c3)CC4)cc2)C1` (stereo partly drawn) [Compound 135] the DC50 was less than 1 nM.
Compound `CN1C[C@H](Nc2cnn(C)c(=O)c2Br)C[C@H](c2ccc(C(=O)N3CCC(c4ccc(CN5CCC(=O)NC5=O)cc4)CC3)cc2)C1` [Compound 136] has a DC50 greater than 30 nM.
In the case of `CN1C[C@H](Nc2cnn(C)c(=O)c2Br)C[C@H](c2ccc(C(=O)N3CCN(c4ccc5c(c4)n(C)c(=O)n5C4CCC(=O)NC4=O)CC3)cc2)C1` (stereo partly drawn) [Compound 137], the DC50 is reported as 1 to 30 nM.
`CN1C[C@H](Nc2cnn(C)c(=O)c2Br)C[C@H](c2ccc(C(=O)N3CC(c4ccc5c(c4)CN(C4CCC(=O)NC4=O)C5=O)C3)cc2)C1` (stereo partly drawn) [Compound 138] gave a DC50 of less than 1 nM.
Work on `CN1C[C@H](Nc2cnn(C)c(=O)c2Br)C[C@H](c2ccc(CN3CC(c4ccc5c(c4)CN(C4CCC(=O)NC4=O)C5=O)C3)cc2)C1` (stereo partly drawn) [Compound 139] yielded a DC50 of less than 1 nM.
`CN1C[C@H](Nc2cnn(C)c(=O)c2Br)C[C@H](c2ccc(C(=O)N3CCC(c4cccc(CN5CCC(=O)NC5=O)c4)CC3)cc2)C1` [Compound 140] was tested, and the DC50 was greater than 30 nM.
`CN1C[C@H](Nc2cnn(C)c(=O)c2Cl)C[C@H](c2ccc(CN3CC(c4ccc5c(c4)CN(C4CCC(=O)NC4=O)C5=O)C3)cc2)C1` (stereo partly drawn) [Compound 141] was tested, and the DC50 was less than 1 nM.
For `CN1C[C@H](Nc2cnn(C)c(=O)c2Br)C[C@H](c2ccc(C(=O)N3CCN(c4cccc5c4n(C)c(=O)n5C4CCC(=O)NC4=O)CC3)cc2)C1` (stereo partly drawn) [Compound 142], the DC50 was 1 to 30 nM.
Work on `CN1C[C@H](Nc2cnn(C)c(=O)c2Br)C[C@H](c2ccc(C(=O)N3CCN(c4ccc(F)c(C5CCC(=O)NC5=O)c4)CC3)cc2)C1` (stereo partly drawn) [Compound 143] yielded a DC50 of less than 1 nM.
Work on `CN1C[C@H](Nc2cnn(C)c(=O)c2Br)C[C@H](c2ccc(C(=O)N3CC4(CCN(c5ccc(C6CCC(=O)NC6=O)cc5)CC4)C3)cc2)C1` (stereo partly drawn) [Compound 144] yielded a DC50 of less than 1 nM.
In the case of `CN1C[C@H](Nc2cnn(C)c(=O)c2Br)C[C@H](c2ccc(C(=O)N3CC4(C3)CN(c3ccc(C5CCC(=O)NC5=O)cc3)C4)cc2)C1` (stereo partly drawn) [Compound 147], the DC50 is reported as 1 to 30 nM.
`CN1C[C@H](Nc2cnn(C)c(=O)c2Br)C[C@H](c2ccc(C(=O)N3CC4(C3)CN(c3cccc(C5CCC(=O)NC5=O)c3)C4)cc2)C1` (stereo partly drawn) [Compound 148] gave a DC50 of 1 to 30 nM.
`CN1C[C@H](Nc2cnn(C)c(=O)c2Br)C[C@H](c2ccc(C(=O)N3CCN(C4CCN(C5CCC(=O)NC5=O)CC4)CC3)cc2)C1` (stereo partly drawn) [Compound 149] showed a DC50 of 1 to 30 nM.
Work on `Cc1c(N[C@@H]2C[C@H](c3ccc(CN4CCC(c5ccc6c(c5)CN(C5CCC(=O)NC5=O)C6=O)CC4)cc3)CN(C)C2)cnn(C)c1=O` (stereo partly drawn) [Compound 150] yielded a DC50 of less than 1 nM.
In the case of `CN1C[C@H](Nc2cnn(C)c(=O)c2Br)C[C@H](c2ccc(COc3ccc(C4CCC(=O)NC4=O)cc3)cc2)C1` (stereo partly drawn) [Compound 151], the DC50 is reported as 1 to 30 nM.
`CN1C[C@H](Nc2cnn(C)c(=O)c2Br)C[C@H](c2ccc(C(=O)N3CCN(c4ccc(F)c(C5CCC(=O)NC5=O)c4)CC3)cc2)C1` (stereo partly drawn) [Compound 153] showed a DC50 of 1 to 30 nM.
Compound `CN1C[C@H](Nc2cnn(C)c(=O)c2Br)C[C@H](c2ccc(CN3CC4(CCN(c5ccc(C6CCC(=O)NC6=O)cc5)CC4)C3)cc2)C1` (stereo partly drawn) [Compound 154] has a DC50 of less than 1 nM.
Work on `CN1C[C@H](Nc2cnn(C)c(=O)c2Br)C[C@H](c2ccc(CN3CCC4(CC3)CCN(c3ccc(C5CCC(=O)NC5=O)c(F)c3)CC4)cc2)C1` (stereo partly drawn) [Compound 156] yielded a DC50 of less than 1 nM.
With `CN1C[C@H](Nc2cnn(C)c(=O)c2Br)C[C@H](c2ccc(CN3CCC4(CC3)CCN(c3ccc(C5CCC(=O)NC5=O)cc3F)CC4)cc2)C1` (stereo partly drawn) [Compound 158] the DC50 was less than 1 nM.
Compound `CN1C[C@H](Nc2cnn(C)c(=O)c2Br)C[C@H](c2ccc(CN3CC4(C3)CN(c3ccc(C5CCC(=O)NC5=O)cc3)C4)cc2)C1` (stereo partly drawn) [Compound 159] has a DC50 of 1 to 30 nM.
With `CN1C[C@H](Nc2cnn(C)c(=O)c2Br)C[C@H](c2ccc(CN3CC4(C3)CN(c3cccc(C5CCC(=O)NC5=O)c3)C4)cc2)C1` (stereo partly drawn) [Compound 160] the DC50 was greater than 30 nM.
`CN1C[C@H](Nc2cnn(C)c(=O)c2Br)C[C@H](c2ccc(C(=O)N3CCC(N4CCN(C5CCC(=O)NC5=O)CC4)CC3)cc2)C1` (stereo partly drawn) [Compound 161] gave a DC50 greater than 30 nM.
In the case of `CN1C[C@H](Nc2cnn(C)c(=O)c2Cl)C[C@H](c2ccc(C(=O)N3CCC4(CC3)CCN(c3cccc(C5CCC(=O)NC5=O)c3)CC4)cc2)C1` (stereo partly drawn) [Compound 163], the DC50 is reported as less than 1 nM.
In the case of `CN1C[C@H](Nc2cnn(C)c(=O)c2Cl)C[C@H](c2ccc(CN3Cc4cc5c(cc4C3)C(=O)N(C3CCC(=O)NC3=O)C5=O)cc2)C1` (stereo partly drawn) [Compound 164], the DC50 is reported as 1 to 30 nM.
`Cc1ccc(N2CCN(Cc3ccc([C@H]4C[C@@H](Nc5cnn(C)c(=O)c5Br)CN(C)C4)cc3)CC2)cc1C1CCC(=O)NC1=O` (stereo partly drawn) [Compound 165] gave a DC50 of less than 1 nM.
`Cc1cc(N2CCC3(CCN(Cc4ccc([C@H]5C[C@@H](Nc6cnn(C)c(=O)c6Br)CN(C)C5)cc4)CC3)CC2)ccc1C1CCC(=O)NC1=O` (stereo partly drawn) [Compound 166] showed a DC50 of less than 1 nM.
`CN1C[C@H](Nc2cnn(C)c(=O)c2Br)C[C@H](c2ccc(C(=O)N3CCC4(CC3)CCN(c3ccc(F)c(C5CCC(=O)NC5=O)c3)CC4)cc2)C1` (stereo partly drawn) [Compound 169] gave a DC50 of less than 1 nM.
For `CN1C[C@H](Nc2cnn(C)c(=O)c2Cl)C[C@H](c2ccc(CN3CCC4(CC3)CCN(c3cccc(C5CCC(=O)NC5=O)c3)CC4)cc2)C1` (stereo partly drawn) [Compound 170], the DC50 was less than 1 nM.
`C#Cc1c(N[C@@H]2C[C@H](c3ccc(CN4CCC(c5ccc6c(c5)CN(C5CCC(=O)NC5=O)C6=O)CC4)cc3)CN(C)C2)cnn(C)c1=O` (stereo partly drawn) [Compound 171] was tested, and the DC50 was greater than 30 nM.
Work on `CN1C[C@H](Nc2cnn(C)c(=O)c2Br)C[C@H](c2ccc(C(=O)N3CCC(c4ccc5c(c4)CN(C4CCC(=O)NC4=O)C5=O)CC3)cc2)C1` (stereo partly drawn) [Compound 172] yielded a DC50 of 1 to 30 nM.
For `CN1C[C@H](Nc2cnn(C)c(=O)c2Br)C[C@H](c2ccc(CN3CCC(c4ccc(OC5CCC(=O)NC5=O)cc4)CC3)cc2)C1` (stereo partly drawn) [Compound 173], the DC50 was 1 to 30 nM.
Compound `CN1C[C@H](Nc2cnn(C)c(=O)c2Br)C[C@H](c2ccc(CN3CCC4(CC3)CCN(c3ccc(F)c(C5CCC(=O)NC5=O)c3)CC4)cc2)C1` (stereo partly drawn) [Compound 174] has a DC50 of less than 1 nM.

From patent US20260306640A1, “TECHNOLOGIES TARGETING CELL STATES” (Auron Therapeutics, Inc., priority 2023, published 2026)
